# In patent US6737383B1, “Herbicidal oxadiazolidines” (priority 1999, dated 2004):
# Legend:
# blackgrass = test: Test B pre/postemergence blackgrass; type: in vivo, Alopecurus myosuroides; conditions: for Blackgrass plant response rating: scale of 0 to 10 where 0 is no effect and 10 is complete control
# In short: (§1)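 Herbicidal effect was estimated by eye on a ten-point control scale after plants spent twelve to sixteen days in a greenhouse following soil or foliar treatment. Foliar sprays targeted plants at one to four leaves; all doses were formulated in a non-phytotoxic solvent with surfactant.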
# giant foxtail = test: Test B pre/postemergence giant foxtail; type: in vivo, Setaria faberii; conditions: for Giant foxtail plant response rating: scale of 0 to 10 where 0 is no effect and 10 is complete control
# In short: as §1
# surinam grass = test: Test B pre/postemergence surinam grass; type: in vivo, Brachiaria decumbens; conditions: for B. signalgrass plant response rating: scale of 0 to 10 where 0 is no effect and 10 is complete control
# In short: as §1
# purple nutsedge = test: Test B pre/postemergence purple nutsedge; type: in vivo, Cyperus rotundus; conditions: for Nutsedge plant response rating: scale of 0 to 10 where 0 is no effect and 10 is complete control
# In short: as §1
# pigweed = test: Test B pre/postemergence pigweed; type: in vivo, Amaranthus retroflexus; conditions: for Redroot pigweed plant response rating: scale of 0 to 10 where 0 is no effect and 10 is complete control
# In short: as §1
# duck salad = test: Test B flood test duck salad; type: in vivo, Heteranthera limosa
# In short: (§2)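 Plants were grown to the 2-leaf stage before treatment with test chemical, then held in a greenhouse for twelve to sixteen days. Injury was visually rated against untreated controls on a 0–10 scale, where 0 is no effect and 10 is complete control.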
# smallflower flatsedge = test: Test B flood test smallflower flatsedge; type: in vivo, Cyperus difformis
# In short: as §2
# bedstraw = test: Test B pre/postemergence bedstraw; type: in vivo, Galium aparine; conditions: Rate 500 g/ha, scale of 0 to 10 where 0 is no effect and 10 is complete control
# In short: as §1
# morningglory = test: Test B pre/postemergence morningglory; type: in vivo, Ipomoea hederacea; conditions: for Morningglory plant response rating: scale of 0 to 10 where 0 is no effect and 10 is complete control
# In short: as §1
# cocklebur = test: Test B pre/postemergence cocklebur; type: in vivo, Xanthium strumarium; conditions: for Cocklebur plant response rating: scale of 0 to 10 where 0 is no effect and 10 is complete control
# In short: as §1
# rape = test: Test B pre/postemergence rape; type: in vivo, Brassica napus; conditions: for Rape plant response rating: scale of 0 to 10 where 0 is no effect and 10 is complete control
# In short: as §1
# wheat = test: Test B pre/postemergence wheat; type: in vivo, Triticum aestivum; conditions: for Wheat plant response rating: scale of 0 to 10 where 0 is no effect and 10 is complete control
# In short: as §1
# soybean = test: Test B pre/postemergence soybean; type: in vivo, Glycine max; conditions: for Soybean plant response rating: scale of 0 to 10 where 0 is no effect and 10 is complete control
# In short: as §1
# bamyardgrass = test: Test B flood test barnyardgrass; type: in vivo, Echinochloa crus-galli
# In short: as §2
# wild oat = test: Test B pre/postemergence wild oat; type: in vivo, Avena fatua; conditions: for Wild oats plant response rating: scale of 0 to 10 where 0 is no effect and 10 is complete control
# In short: as §1
# sugar beet = test: Test B pre/postemergence sugar beet; type: in vivo, Beta vulgaris; conditions: for Sugarbeets plant response rating: scale of 0 to 10 where 0 is no effect and 10 is complete control
# In short: as §1
# [1] = Postemergence, Rate 125 g/ha, scale 0 to 10, 0 is no effect, 10 is complete control
# [2] = Preemergence, Rate 62 g/ha, scale 0 to 10 (0 no effect, 10 complete control)
# [3] = Postemergence, Rate 250 g/ha, scale 0 to 10, 0 is no effect, 10 is complete control
# [4] = Rate 62 g/ha, flood test species, Pre-emergence, visual evaluation after twelve to sixteen days
# [5] = Rate 125 g/ha, under heading Pre-emergence, flood test species, visual evaluation after twelve to sixteen days
# [6] = Rate 250 g/ha, Pre-emergence, flood-test species, scale 0 to 10, 0 is no effect, 10 is complete control
# [7] = Rate 500 g/ha, Pre-emergence, flood test species, scale 0 to 10 (0 no effect, 10 complete control)
compound,measurement,setting,value
CC(C)N(C(=O)n1oc(=O)n(CCC#N)c1=O)c1ccc(F)cc1 [Compound 388],"Plant response rating, Blackgrass",blackgrass; [1],8
same,Blackgrass plant response rating,"blackgrass; Postemergence, Rate 500 g/ha",10
same,"Plant response rating, Blackgrass",blackgrass; [2],0
same,Blackgrass plant response rating (0 to 10 scale),"blackgrass; Preemergence, Rate 125 g/ha",1
same,Blackgrass plant response rating,"blackgrass; Preemergence, Rate 250 g/ha",5
same,Blackgrass plant response rating,"blackgrass; Preemergence, Rate 500 g/ha",6
same,"Plant response rating, Giant foxtail",giant foxtail; [1],8
same,"Plant response rating, Giant foxtail",giant foxtail; [3],8
same,Giant foxtail plant response rating,"giant foxtail; Postemergence, Rate 500 g/ha",9
same,"Plant response rating, Giant foxtail",giant foxtail; [2],8
same,Giant foxtail plant response rating (0 to 10 scale),"giant foxtail; Preemergence, Rate 125 g/ha",8
same,Giant foxtail plant response rating,"giant foxtail; Preemergence, Rate 250 g/ha",10
same,Giant foxtail plant response rating,"giant foxtail; Preemergence, Rate 500 g/ha",10
same,Giant foxtail plant response rating,"giant foxtail; Rate 62 g/ha, Postemergence",7
same,"Plant response rating, B. signalgrass",surinam grass; [1],6
same,"Plant response rating, B. signalgrass",surinam grass; [3],8
same,B. signalgrass plant response rating,"surinam grass; Postemergence, Rate 500 g/ha",8
same,"Plant response rating, B. signalgrass",surinam grass; [2],0
same,"B. signalgrass plant response rating (0 to 10 scale, 0 is no effect, 10 is complete control)","surinam grass; Preemergence, Rate 125 g/ha",2
same,B. signalgrass plant response rating,"surinam grass; Preemergence, Rate 250 g/ha",3
same,B. signalgrass plant response rating,"surinam grass; Preemergence, Rate 500 g/ha",6
same,B. signalgrass plant response rating,"surinam grass; Rate 62 g/ha, Postemergence",1
same,"Plant response rating, Nutsedge",purple nutsedge; [3],5
same,Nutsedge plant response rating,"purple nutsedge; Postemergence, Rate 500 g/ha",6
same,"Plant response rating, Nutsedge",purple nutsedge; [2],0
same,Nutsedge plant response rating (0 to 10 scale),"purple nutsedge; Preemergence, Rate 125 g/ha",0
same,Nutsedge plant response rating,"purple nutsedge; Preemergence, Rate 250 g/ha",0
same,"Plant response rating, Redroot pigweed",pigweed; [1],0
same,"Plant response rating, Redroot pigweed",pigweed; [3],0
same,Redroot pigweed plant response rating,"pigweed; Postemergence, Rate 500 g/ha",3
same,"Plant response rating, Redroot pigweed",pigweed; [2],0
same,Redroot pigweed plant response rating (0 to 10 scale),"pigweed; Preemergence, Rate 125 g/ha",0
same,Redroot pigweed plant response rating,"pigweed; Preemergence, Rate 250 g/ha",6
same,Redroot pigweed plant response rating,"pigweed; Preemergence, Rate 500 g/ha",10
same,Redroot pigweed plant response rating,"pigweed; Rate 62 g/ha, Postemergence",0
same,"Plant response rating, Ducksalad (0 to 10 scale, 0 is no effect, 10 is complete control)",duck salad; [4],0
same,"Ducksalad plant response rating (0 to 10 scale, 0 is no effect, 10 is complete control)",duck salad; [5],0
same,Ducksalad plant response rating,duck salad; [6],0
same,Ducksalad plant response rating,duck salad; [7],0
same,"Plant response rating, S. Flatsedge (0 to 10 scale, 0 is no effect, 10 is complete control)",smallflower flatsedge; [4],0
same,"S. Flatsedge plant response rating (0 to 10 scale, 0 is no effect, 10 is complete control)",smallflower flatsedge; [5],0
same,S. Flatsedge plant response rating,smallflower flatsedge; [6],0
same,S. Flatsedge plant response rating,smallflower flatsedge; [7],0
same,Bedstraw plant response rating,bedstraw; Postemergence,6
same,Bedstraw plant response rating,bedstraw; Preemergence,7
same,"Plant response rating, Morningglory",morningglory; [1],3
same,"Plant response rating, Morningglory",morningglory; [3],4
same,Morningglory plant response rating,"morningglory; Postemergence, Rate 500 g/ha",5
same,"Plant response rating, Morningglory",morningglory; [2],0
same,Morningglory plant response rating (0 to 10 scale),"morningglory; Preemergence, Rate 125 g/ha",0
same,Morningglory plant response rating,"morningglory; Preemergence, Rate 250 g/ha",0
same,Morningglory plant response rating,"morningglory; Preemergence, Rate 500 g/ha",0
same,Morningglory plant response rating,"morningglory; Rate 62 g/ha, Postemergence",1
same,"Plant response rating, Cocklebur",cocklebur; [1],0
same,"Plant response rating, Cocklebur",cocklebur; [3],0
same,Cocklebur plant response rating,"cocklebur; Postemergence, Rate 500 g/ha",0
same,"Plant response rating, Cocklebur",cocklebur; [2],0
same,Cocklebur plant response rating (0 to 10 scale),"cocklebur; Preemergence, Rate 125 g/ha",0
same,Cocklebur plant response rating,"cocklebur; Preemergence, Rate 250 g/ha",0
same,Cocklebur plant response rating,"cocklebur; Preemergence, Rate 500 g/ha",0
same,Cocklebur plant response rating,"cocklebur; Rate 62 g/ha, Postemergence",0
same,"Plant response rating, Rape",rape; [1],0
same,Rape plant response rating,"rape; Postemergence, Rate 500 g/ha",0
same,"Plant response rating, Rape",rape; [2],0
same,Rape plant response rating (0 to 10 scale),"rape; Preemergence, Rate 125 g/ha",0
same,Rape plant response rating,"rape; Preemergence, Rate 250 g/ha",2
same,Rape plant response rating,"rape; Preemergence, Rate 500 g/ha",8
same,Rape plant response rating,"rape; Rate 62 g/ha, Postemergence",0
same,"Plant response rating, Wheat",wheat; [1],0
same,"Plant response rating, Wheat",wheat; [3],3
same,Wheat plant response rating,"wheat; Postemergence, Rate 500 g/ha",8
same,"Plant response rating, Wheat",wheat; [2],0
same,Wheat plant response rating (0 to 10 scale),"wheat; Preemergence, Rate 125 g/ha",2
same,Wheat plant response rating,"wheat; Preemergence, Rate 250 g/ha",4
same,Wheat plant response rating,"wheat; Preemergence, Rate 500 g/ha",8
same,Wheat plant response rating,"wheat; Rate 62 g/ha, Postemergence",0
same,"Plant response rating, Soybean",soybean; [1],1
same,"Plant response rating, Soybean",soybean; [3],1
same,Soybean plant response rating,"soybean; Postemergence, Rate 500 g/ha",1
same,"Plant response rating, Soybean",soybean; [2],0
same,Soybean plant response rating (0 to 10 scale),"soybean; Preemergence, Rate 125 g/ha",0
same,Soybean plant response rating,"soybean; Preemergence, Rate 250 g/ha",0
same,Soybean plant response rating,"soybean; Preemergence, Rate 500 g/ha",4
same,Soybean plant response rating,"soybean; Rate 62 g/ha, Postemergence",1
same,"Plant response rating, Barnyardgrass (0 to 10 scale, 0 is no effect, 10 is complete control)",bamyardgrass; [4],0
same,"Barnyardgrass plant response rating (0 to 10 scale, 0 is no effect, 10 is complete control)",bamyardgrass; [5],0
same,Barnyardgrass plant response rating,bamyardgrass; [6],0
same,Barnyardgrass plant response rating,bamyardgrass; [7],0
same,"Plant response rating, Wild oats",wild oat; [1],0
same,"Plant response rating, Wild oats",wild oat; [3],0
same,Wild oats plant response rating,"wild oat; Postemergence, Rate 500 g/ha",6
same,"Plant response rating, Wild oats",wild oat; [2],3
same,Wild oats plant response rating (0 to 10 scale),"wild oat; Preemergence, Rate 125 g/ha",6
same,Wild oats plant response rating,"wild oat; Preemergence, Rate 250 g/ha",10
same,Wild oats plant response rating,"wild oat; Preemergence, Rate 500 g/ha",10
same,Wild oats plant response rating,"wild oat; Rate 62 g/ha, Postemergence",0
same,"Plant response rating, Sugarbeets",sugar beet; [1],0
same,"Plant response rating, Sugarbeets",sugar beet; [3],0
same,Sugarbeets plant response rating,"sugar beet; Postemergence, Rate 500 g/ha",4
same,"Plant response rating, Sugarbeets",sugar beet; [2],0
same,Sugarbeets plant response rating (0 to 10 scale),"sugar beet; Preemergence, Rate 125 g/ha",2
same,Sugarbeets plant response rating,"sugar beet; Preemergence, Rate 250 g/ha",3
same,Sugarbeets plant response rating,"sugar beet; Preemergence, Rate 500 g/ha",6
same,Sugarbeets plant response rating,"sugar beet; Rate 62 g/ha, Postemergence",0
